Experimental data reported in ChEMBL document CHEMBL1152235, “(3R)-3-amino-4-(2,4,5-trifluorophenyl)-N-{4-[6-(2-methoxyethoxy)benzothiazol-2-yl]tetrahydropyran-4-yl}butanamide as a potent dipeptidyl peptidase IV inhibitor for the treatment of type 2 diabetes” (Bioorg Med Chem Lett, 2008).
Calls of active or inactive are those of the source. No cut-off for these calls is given here.

Assays:
[1] = human, microsomes
[2] = rat, microsomes
[3] = mouse, microsomes
Description: Metabolic stability in mouse microsomes assessed as intrinsic clearance

Rattus norvegicus = experiment: Inhibition of DPP4 in po dosed Sprague-Dawley rat plasma; format: functional
Mus musculus = experiment: Reduction in blood glucose excursion in ICR mouse at 30 mg/kg, po administered 30 mins prior to glucose challenge by glucose tolerance test; format: functional, organism-based; design: dose 30 mg/kg

SMILES	CL [1] [µL/min/mg]	CL [2] [µL/min/mg]	CL [3] [µL/min/mg]	Activity (Rattus norvegicus)	ED50 (Rattus norvegicus; read-out: ID50 (the source's name)) [mg/kg]	Activity (Mus musculus)
COc1ccc2nc(C3(NC(=O)C[C@H](N)Cc4ccccc4F)CCS(=O)(=O)CC3)sc2c1	26.2	51.5	–	–	–	–
C[C@]12CC[C@H]3[C@@H](CCC4=CC(=O)CC[C@@]43C)[C@@H]1CC[C@@H]2O [TESTOSTERONE]	109.3	375.6	312.6	–	–	–
N[C@@H](CC(=O)NC1(c2nc3ccc(OCCN4CCOCC4)cc3s2)CCS(=O)(=O)CC1)Cc1cc(F)c(F)cc1F	92.8	26	34.5	–	–	–
COCCOc1ccc2nc(C3(NC(=O)C[C@H](N)Cc4cc(F)c(F)cc4F)CCS(=O)(=O)CC3)sc2c1	46.6	21.9	34.1	–	–	–
COc1ccc2nc(C3(NC(=O)C[C@H](N)Cc4cc(F)c(F)cc4F)CCS(=O)(=O)CC3)sc2c1	32.3	42.3	–	–	–	–
COCCOc1ccc2nc(C3(NC(=O)C[C@H](N)Cc4cc(F)c(F)cc4F)CCOCC3)sc2c1	21.9	49.6	22.1	Dose-dependent effect	2.7	Active
N[C@@H](CC(=O)NC1(c2nc3ccccc3s2)CCS(=O)(=O)CC1)Cc1cc(F)c(F)cc1F	39.9	64.4	–	–	–	–
COCCOc1ccc2nc(C3(NC(=O)C[C@H](N)Cc4cc(Cl)ccc4F)CCOCC3)sc2c1	34.2	98.1	28.6	–	–	–
COCCOc1ccc2nc(C3(NC(=O)C[C@H](N)Cc4cc(Cl)ccc4F)CCS(=O)(=O)CC3)sc2c1	63.8	31.5	33	–	–	–
N[C@@H](CC(=O)NC1(c2nc3ccccc3s2)CCS(=O)(=O)CC1)Cc1ccccc1F	34.6	73.4	–	–	–	–
